Measured values as given in patent US5049694A, “Pharmaceutical composition having relaxing activity which contains a nitrate ester as active substance” (Cedona Pharmaceuticals B.V., priority 1988, dated 1991).
Read-outs that look alike come from different tables or passages of the source.

Assays:
[1] = tested on: contracted strips of the rats' arota; assay: relaxing potency in vitro on phenylefrine-contracted strips of rat aorta; type: cell-based, rat (male Wistar); settings: read-out: EC50 (concentration with which relaxation took place up to 50% of the contraction induced by 10^-7 M phenylefrine)
Description: The relaxing potency of the compounds as described is tested in vitro on contracted strips of the rats' arota. Male Wistar rates (200-220 g) are killed by decapitation. The thoracal aorta is removed and is helically cut into strips (length: ±10 mm, width: ±2 mm; 4 strips per rat).
The strips are suspended in organ baths filled with 20 ml of Krebs' medium with a constant temperature of 37° C. passing through O2 /CO2 (95/5) and subsequently for 2 h equilibrated under an isotonic load of 500 mg. The medium is renewed every 20 minutes.
After equilibration contraction takes place by addition of 10^-7M phenylefrine to the medium. After reaching the maximal contraction the composition with the organic nitrate ester to be tested in cumulative concentration steps is relaxed.
The degree of relaxation is expressed as a percentage of the maximal contraction (=100%) reached with 10^-7 M phenylefrine. The relaxing potency of the tested compounds is expressed as the EC50 : the concentration with which relaxation took place up to 50% of the contraction induced by 10^-7 M phenylefrine. From a number of compounds the EC50 -values have been stated in Table 1. For comparison the EC50 -values of glyceryltrinitrate and isosorbidedinitrate have also been included.

[2] = chronical administration, clinical; cited from earlier work
heart = settings: therapeutical use; cited from earlier work

Row | SMILES | EC50 ([1]; Rattus norvegicus) [nM] | also measured
1 | Cc1c(C)c(CCO[N+](=O)[O-])c(C)c(C)c1CCO[N+](=O)[O-] [Compound 12, 1,4-bis(2-nitroxyethyl)-2,3,5,6-tetramethylbenzene] | 78 | –
2 | O=[N+]([O-])OCCc1cccc2ccccc12 [Compound 9, 2-(1-naphthyl)ethanol nitrate] | 4.2 | –
3 | O=[N+]([O-])OCCOC(c1ccccc1)c1ccccc1 [Compound 25, 2-diphenylmethoxyethanol nitrate] | 250 | –
4 | O=[N+]([O-])OCC(CO[N+](=O)[O-])c1ccc2ccccc2c1 [Compound 10, 2-(2-naphthyl)-1,3-propanediol nitrate] | 13 | –
5 | O=[N+]([O-])OCC(CO[N+](=O)[O-])O[N+](=O)[O-] [glyceryl trinitrate] | – | EC50 ([1]; rat thoracal aorta strips, contracted with 10^-7 M phenylefrine, cumulative concentrations, 37° C.): 7.3 nM; development of tolerance [2]: development of so-called tolerance; need of oxygen to the heart (heart): lower need of oxygen to the heart; post-load of the heart (heart): also affected, be it to a lower extent; pre-load of the heart (heart): diminish especially the pre-load of the heart
6 | O=[N+]([O-])OCCc1ccccc1 [Compound 1, 2-phenylethanol nitrate] | – | EC50 [1]: 120 nM
7 | O=[N+]([O-])OC(Cc1ccccc1)Cc1ccccc1 [Compound 23, 1,3-diphenyl-2-propanol nitrate] | 400 | –
8 | O=[N+]([O-])OCCc1ccc(CCO[N+](=O)[O-])cc1 [Compound 11, 1,4-bis(2-nitroxyethyl)benzene] | 4.6 | –
9 | O=[N+]([O-])O[C@@H]1CO[C@H]2[C@@H]1OC[C@@H]2OC(c1ccccc1)c1ccccc1 [Compound 28, 2-diphenylmethyl-1,4:3,6-dianhydroglucitol nitrate] | 200 | –
